US20250326777A1, “COMPOUNDS, COMPOSITIONS AND METHODS THEREOF” (HEPAITECH (BEIJING) BIOPHARMA TECHNOLOGY CO., LTD., priority 2022, published 2025)

Biological target: T1, human MRGPRX4 (Homo sapiens, UniProt Q96LA9)
T1 construct: expressed in transfected cells
Test: MRGPRX4 antagonist calcium (FLIPR, Fluo-8) assay in HEK293T cells stably expressing human MRGPRX4, agonist 0.2 μM deoxycholic acid-3-phosphoric acid
Format: cell-based
Settings: HEK293T cells stably expressing human MRGPRX4; antagonist mode; top conc. 30 μM, ten 3-fold serial dilutions; C may also mean <40% inhibition at 2 μM; read-out: Antagonist activity (IC50 class)
Experimental: HEK293T cells stably expressing human MRGPRX4 were cultured in DMEM medium supplements with 10% FBS, 100 U/mL penicillin-streptomycin, 20 mM HEPES and 1 μg/mL puromycin at 37° C. with 5% (v/v) CO2. One day before test, the cells were detached using TrypLE™ Express and counted using cell counter. In a 384-well plate cells were seeded at a density of 20,000 cells/well in 20 uL/well planting medium (DMEM medium supplements with 5% FBS, 100 U/mL penicillin-streptomycin and 20 mM HEPES), and incubated overnight at 37° C. with 5% (v/v) CO2. On the day of experiments, the dye solution, prepared following the manufacture's instruction of the Screen Quest™ Fluo-8 No Wash Calcium Assay Kit, was added to each well (20 μL/well) of the cell plate. The cell plate was incubated at 25° C. for 1 hour. Test compounds in different doses were transferred to the cell plate by FLIPR and the plate was kept in the dark at 25° C. for 30 minutes. The agonist solution, 0.2 μM of deoxycholic acid-3-phosphoric acid in assay buffer, was added to each well of the plate. The plate was read for 160 sec with 1 sec interval to obtain data of antagonist mode in FLIPR. For various compounds, IC50 values were calculated by fitting % inhibition against log of compound concentrations (top conc. 30 μM, ten 3-fold serial dilutions) with Hill equation using XLfit. […] Those skilled in the art appreciate that IC50 of various compounds can be assessed in accordance with the present disclosure.

T1 sequence (Q96LA9 whole entry): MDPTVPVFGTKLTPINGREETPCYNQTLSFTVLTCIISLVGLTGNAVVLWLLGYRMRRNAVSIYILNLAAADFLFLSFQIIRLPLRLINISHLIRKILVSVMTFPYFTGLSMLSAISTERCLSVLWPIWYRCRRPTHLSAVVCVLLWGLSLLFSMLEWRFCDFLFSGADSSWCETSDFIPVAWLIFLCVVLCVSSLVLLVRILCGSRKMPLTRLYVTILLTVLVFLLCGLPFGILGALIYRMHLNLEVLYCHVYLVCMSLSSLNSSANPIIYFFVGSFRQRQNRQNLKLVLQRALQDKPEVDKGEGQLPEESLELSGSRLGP

| IC50 | SMILES |
| --- | --- |
| < 1 µM | O=C(O)c1cccc(C2Cc3cc(C(F)(F)F)ccc3O2)c1F (stereo not shown) [Example 52] |
| > 10 µM | O=C(O)c1ccc(C2Cc3cc(C(F)(F)F)ccc3O2)cc1F (stereo not shown) [Example 55] |
| > 10 µM | COc1c(C(=O)O)cccc1C1Cc2cc(C(F)(F)F)ccc2O1 (stereo not shown) [Example 56] |
| > 10 µM | Cc1c(C(=O)O)cccc1C1Cc2cc(C(F)(F)F)ccc2O1 (stereo not shown) [Example 68] |
| > 10 µM | NC(=O)c1cccc(C2Cc3cc(C(F)(F)F)ccc3O2)c1F (stereo not shown) [Example 73] |
| > 10 µM | CNC(=O)c1cccc(C2Cc3cc(C(F)(F)F)ccc3O2)c1F (stereo not shown) [Example 74] |
| > 10 µM | CN(C)C(=O)c1cccc(C2Cc3cc(C(F)(F)F)ccc3O2)c1F (stereo not shown) [Example 75] |
| > 10 µM | O=C(O)c1cccc(C2CCc3cc(C(F)(F)F)ccc3O2)c1F (stereo not shown) [Example 76] |
| 1 to 10 µM | O=C(O)c1cccc(C2Cc3cc(OC(F)(F)F)ccc3O2)c1F (stereo not shown) [Example 78] |
| > 10 µM | O=C(O)c1cccc(C2Cc3cc(F)ccc3O2)c1F (stereo not shown) [Example 79] |
| > 10 µM | O=C(O)c1c(F)ccc(C2Cc3cc(C(F)(F)F)ccc3O2)c1F (stereo not shown) [Example 85] |
| > 10 µM | O=C(O)c1cccc(C2Cc3cc(C(F)(F)F)ccc3O2)c1F (stereo not shown) [Example 87] |

The next lines start with the compound.

| SMILES | IC50 |
| --- | --- |
| O=C(O)c1ccc(-c2nc3cc(C(F)(F)F)cc(Cl)c3o2)cc1 [Example 47] | > 10 µM |
| O=C(O)c1cc(Br)cc(-c2nc3cc(C(F)(F)F)c(Cl)cc3s2)c1 [Example 48] | > 10 µM |
| O=C(O)c1cccc(-c2cc3cc(C(F)(F)F)ccc3o2)c1 [Example 50] | > 10 µM |
| O=C(O)c1cccc(-c2cc3ccc(C(F)(F)F)cc3o2)c1 [Example 51] | > 10 µM |
| O=C(O)c1cc(C2Cc3cc(C(F)(F)F)ccc3O2)ccc1F (stereo not shown) [Example 53] | 1 to 10 µM |
| O=C(O)c1ccc(F)c(C2Cc3cc(C(F)(F)F)ccc3O2)c1 (stereo not shown) [Example 54] | > 10 µM |
| O=C(O)c1cc(F)cc(C2Cc3cc(C(F)(F)F)ccc3O2)c1 (stereo not shown) [Example 57] | 1 to 10 µM |
| COc1cc(C(=O)O)cc(C2Cc3cc(C(F)(F)F)ccc3O2)c1 (stereo not shown) [Example 58] | > 10 µM |
| O=C(O)c1ccc(C2Cc3ccccc3O2)cc1 (stereo not shown) [Example 59] | > 10 µM |
| O=C(O)c1cccc(C2Cc3cc(C(F)(F)F)ccc3O2)c1 (stereo not shown) [Example 60] | 1 to 10 µM |
| O=C(O)c1ccc(C2Cc3cc(C(F)(F)F)ccc3O2)cc1 (stereo not shown) [Example 61] | > 10 µM |
| O=C(O)c1cc(Cl)cc(C2Cc3cc(C(F)(F)F)ccc3O2)c1 (stereo not shown) [Example 62] | 1 to 10 µM |
| O=C(O)c1cccc(C2Cc3cc(Cl)ccc3O2)c1F (stereo not shown) [Example 63] | 1 to 10 µM |
| O=C(O)c1cc(-c2ccccc2)cc(C2Cc3cc(C(F)(F)F)ccc3O2)c1 (stereo not shown) [Example 64] | > 10 µM |
| O=C(O)c1cc(C2CCCC2)cc(C2Cc3cc(C(F)(F)F)ccc3O2)c1 (stereo not shown) [Example 65] | > 10 µM |
| O=C(O)c1cc(C2CC2)cc(C2Cc3cc(C(F)(F)F)ccc3O2)c1 (stereo not shown) [Example 66] | 1 to 10 µM |
| Cc1cc(C(=O)O)cc(C2Cc3cc(C(F)(F)F)ccc3O2)c1 (stereo not shown) [Example 67] | 1 to 10 µM |
| Cn1cc(-c2cc(C(=O)O)cc(C3Cc4cc(C(F)(F)F)ccc4O3)c2)cn1 (stereo not shown) [Example 69] | > 10 µM |
| CCOP(=O)(OCC)c1ccc(-c2cc3ccc(C(F)(F)F)cc3n2C)cc1 [Example 70, diethyl(4-(1-methyl-6-(trifluoromethyl)-1H-indol-2-yl)phenyl)phosphonate] | > 10 µM |
| Cn1c(-c2ccc(P(=O)(O)O)cc2)cc2ccc(C(F)(F)F)cc21 [Example 71] | > 10 µM |
| CCOP(=O)(O)c1ccc(-c2cc3ccc(C(F)(F)F)cc3n2C)cc1 [Example 72] | > 10 µM |
| O=C(O)c1cccc(C2Cc3c(cccc3C(F)(F)F)O2)c1F (stereo not shown) [Example 77] | > 10 µM |
| N#Cc1ccc2c(c1)CC(c1cccc(C(=O)O)c1F)O2 (stereo not shown) [Example 80] | > 10 µM |
| O=C(O)c1cccc(C2Cc3cc(F)c(F)cc3O2)c1F (stereo not shown) [Example 81] | > 10 µM |
| O=C(O)c1cccc(C2Cc3cc(F)cc(F)c3O2)c1F (stereo not shown) [Example 82] | > 10 µM |
| O=C(O)c1cccc(C2Cc3cccc(C(F)(F)F)c3O2)c1F (stereo not shown) [Example 83] | > 10 µM |
| O=C(O)c1cccc(C2Cc3cc(F)cc(Cl)c3O2)c1F (stereo not shown) [Example 84] | > 10 µM |
| CC1(c2cccc(C(=O)O)c2F)Cc2cc(C(F)(F)F)ccc2O1 (stereo not shown) [Example 86] | 1 to 10 µM |
